The text below walks through data of patent US20120270237A9, “METHODS FOR THE IDENTIFICATION OF KINASE INTERACTING MOLECULES AND FOR THE PURIFICATION OF KINASE PROTEINS” (Cellzone AG, priority 2009, published 2012).

What all share (experiment): Kinobeads competition binding with immobilized CZC25342, mixed HeLa placenta lysates (Example 5, Table 7)
Test [1] has as its target T1, kinases from mixed HeLa placenta lysates (Homo sapiens, UniProt O14965).
T1 construct: capturing and identification of kinases from mixed HeLa placenta lysates; endogenous in cells; host or cells: mixed lysate of HeLa cells and placenta tissue
Conditions: kinase AurA; 10 μM free compound; HeLa Placenta lysate mix. The method in brief:
(§1)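 Mixed HeLa/placenta lysate was preincubated with 10 μM free CZC25342 or DMSO, followed by capture on beads bearing immobilized compound. Bound proteins were eluted, separated by SDS-PAGE, trypsin-digested, iTRAQ-labelled and quantified by LC-MS/MS. Percent competition was taken against the DMSO control.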

Test [2] has as its target T2, kinases from mixed HeLa placenta lysates (Homo sapiens, UniProt O14976).
T2 construct: capturing and identification of kinases from mixed HeLa placenta lysates; endogenous in cells; host or cells: mixed lysate of HeLa cells and placenta tissue
The conditions noted are these: kinase GAK; 10 μM free compound; HeLa Placenta lysate mix. The method in brief: as §1

Test [3] concerns the target T3, kinases from mixed HeLa placenta lysates (Homo sapiens, UniProt O43353).
T3 construct: capturing and identification of kinases from mixed HeLa placenta lysates; endogenous in cells; host or cells: mixed lysate of HeLa cells and placenta tissue
The conditions noted are these: kinase RIPK2; 10 μM free compound; HeLa Placenta lysate mix. In outline: as §1

For test [4], the target named is T4, kinases from mixed HeLa placenta lysates (Homo sapiens, UniProt O95382).
T4 construct: capturing and identification of kinases from mixed HeLa placenta lysates; endogenous in cells; host or cells: mixed lysate of HeLa cells and placenta tissue
T4 sequence (O95382 whole entry): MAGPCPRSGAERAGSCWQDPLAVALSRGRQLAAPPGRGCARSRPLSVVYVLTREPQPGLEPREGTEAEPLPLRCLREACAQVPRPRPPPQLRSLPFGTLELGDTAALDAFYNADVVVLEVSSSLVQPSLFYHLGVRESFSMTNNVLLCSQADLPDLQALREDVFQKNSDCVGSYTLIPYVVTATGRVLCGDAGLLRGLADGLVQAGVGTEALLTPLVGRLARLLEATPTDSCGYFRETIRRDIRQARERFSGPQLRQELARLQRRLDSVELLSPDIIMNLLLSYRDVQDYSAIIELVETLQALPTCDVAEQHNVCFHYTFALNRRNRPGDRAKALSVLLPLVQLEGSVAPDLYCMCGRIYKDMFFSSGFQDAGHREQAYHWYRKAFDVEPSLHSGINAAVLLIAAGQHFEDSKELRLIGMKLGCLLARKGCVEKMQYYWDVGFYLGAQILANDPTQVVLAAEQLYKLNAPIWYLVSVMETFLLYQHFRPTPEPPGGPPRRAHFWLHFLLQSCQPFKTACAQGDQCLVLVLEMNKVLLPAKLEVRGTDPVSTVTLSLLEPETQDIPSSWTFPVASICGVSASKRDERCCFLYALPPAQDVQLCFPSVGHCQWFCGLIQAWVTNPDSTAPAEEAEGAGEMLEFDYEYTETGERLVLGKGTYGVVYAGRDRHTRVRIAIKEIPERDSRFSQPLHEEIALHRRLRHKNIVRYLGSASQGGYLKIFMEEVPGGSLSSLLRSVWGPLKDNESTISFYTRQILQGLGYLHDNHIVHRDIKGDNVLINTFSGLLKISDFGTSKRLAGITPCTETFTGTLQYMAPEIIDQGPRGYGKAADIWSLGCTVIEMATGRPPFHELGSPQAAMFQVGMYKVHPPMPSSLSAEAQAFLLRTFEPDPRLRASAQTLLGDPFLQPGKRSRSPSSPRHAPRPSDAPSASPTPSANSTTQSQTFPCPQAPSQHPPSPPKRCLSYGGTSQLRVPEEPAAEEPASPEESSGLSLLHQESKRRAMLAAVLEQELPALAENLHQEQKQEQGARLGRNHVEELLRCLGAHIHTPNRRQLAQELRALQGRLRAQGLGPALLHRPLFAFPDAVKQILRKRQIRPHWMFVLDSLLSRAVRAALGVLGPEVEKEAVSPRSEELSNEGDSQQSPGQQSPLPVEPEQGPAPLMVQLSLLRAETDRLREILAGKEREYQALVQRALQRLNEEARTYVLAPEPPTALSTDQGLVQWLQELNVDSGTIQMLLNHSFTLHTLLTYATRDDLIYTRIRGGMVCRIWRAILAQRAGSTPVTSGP
The conditions noted are these: kinase MAP3K6; 10 μM free compound; HeLa Placenta lysate mix. The method in brief:
as §1

The target in test [5] is T5, kinases from mixed HeLa placenta lysates (Homo sapiens, UniProt P16591).
T5 construct: capturing and identification of kinases from mixed HeLa placenta lysates; endogenous in cells; host or cells: mixed lysate of HeLa cells and placenta tissue
The conditions noted are these: kinase FER; 10 μM free compound; HeLa Placenta lysate mix. In outline: as §1

For test [6], the target named is T6, kinases from mixed HeLa placenta lysates (Homo sapiens, UniProt P17252).
T6 construct: capturing and identification of kinases from mixed HeLa placenta lysates; endogenous in cells; host or cells: mixed lysate of HeLa cells and placenta tissue
Conditions: kinase PKCa; 10 μM free compound; HeLa Placenta lysate mix. The method in brief:
as §1

For test [7], the target named is T7, kinases from mixed HeLa placenta lysates (Homo sapiens, UniProt P35968).
T7 construct: capturing and identification of kinases from mixed HeLa placenta lysates; endogenous in cells; host or cells: mixed lysate of HeLa cells and placenta tissue
Conditions: kinase KDR; 10 μM free compound; HeLa Placenta lysate mix. The method in brief:
as §1

Test [8] addresses T8, kinases from mixed HeLa placenta lysates (Homo sapiens, UniProt P78356).
T8 construct: capturing and identification of kinases from mixed HeLa placenta lysates; endogenous in cells; host or cells: mixed lysate of HeLa cells and placenta tissue
Conditions: kinase PIP5K2B; 10 μM free compound; HeLa Placenta lysate mix. In outline:
as §1

Test [9] has as its target T9, kinases from mixed HeLa placenta lysates (Homo sapiens, UniProt Q04912).
T9 construct: capturing and identification of kinases from mixed HeLa placenta lysates; endogenous in cells; host or cells: mixed lysate of HeLa cells and placenta tissue
The conditions noted are these: kinase RON; 10 μM free compound; HeLa Placenta lysate mix. In outline:
as §1

Test [10] addresses T10, kinases from mixed HeLa placenta lysates (Homo sapiens, UniProt Q08345).
T10 construct: capturing and identification of kinases from mixed HeLa placenta lysates; endogenous in cells; host or cells: mixed lysate of HeLa cells and placenta tissue
The conditions noted are these: kinase DDR1; 10 μM free compound; HeLa Placenta lysate mix. In outline:
as §1

For test [11], the target named is T11, kinases from mixed HeLa placenta lysates (Homo sapiens, UniProt Q9Y616).
T11 construct: capturing and identification of kinases from mixed HeLa placenta lysates; endogenous in cells; host or cells: mixed lysate of HeLa cells and placenta tissue
Conditions: kinase IRAK3; 10 μM free compound; HeLa Placenta lysate mix. The method in brief:
as §1

T1 sequence (O14965 whole entry): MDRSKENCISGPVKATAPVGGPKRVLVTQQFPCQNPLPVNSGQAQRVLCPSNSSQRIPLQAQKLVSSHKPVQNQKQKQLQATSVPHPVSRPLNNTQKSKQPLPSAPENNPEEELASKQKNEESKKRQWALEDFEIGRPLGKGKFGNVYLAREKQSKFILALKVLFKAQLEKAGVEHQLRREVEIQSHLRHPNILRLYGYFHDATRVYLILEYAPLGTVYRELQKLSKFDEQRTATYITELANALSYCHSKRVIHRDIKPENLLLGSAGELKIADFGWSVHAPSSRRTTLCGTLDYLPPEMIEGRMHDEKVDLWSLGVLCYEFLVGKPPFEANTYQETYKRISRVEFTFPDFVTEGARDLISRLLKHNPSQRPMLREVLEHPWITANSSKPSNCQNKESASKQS
T10 sequence (Q08345 19-913): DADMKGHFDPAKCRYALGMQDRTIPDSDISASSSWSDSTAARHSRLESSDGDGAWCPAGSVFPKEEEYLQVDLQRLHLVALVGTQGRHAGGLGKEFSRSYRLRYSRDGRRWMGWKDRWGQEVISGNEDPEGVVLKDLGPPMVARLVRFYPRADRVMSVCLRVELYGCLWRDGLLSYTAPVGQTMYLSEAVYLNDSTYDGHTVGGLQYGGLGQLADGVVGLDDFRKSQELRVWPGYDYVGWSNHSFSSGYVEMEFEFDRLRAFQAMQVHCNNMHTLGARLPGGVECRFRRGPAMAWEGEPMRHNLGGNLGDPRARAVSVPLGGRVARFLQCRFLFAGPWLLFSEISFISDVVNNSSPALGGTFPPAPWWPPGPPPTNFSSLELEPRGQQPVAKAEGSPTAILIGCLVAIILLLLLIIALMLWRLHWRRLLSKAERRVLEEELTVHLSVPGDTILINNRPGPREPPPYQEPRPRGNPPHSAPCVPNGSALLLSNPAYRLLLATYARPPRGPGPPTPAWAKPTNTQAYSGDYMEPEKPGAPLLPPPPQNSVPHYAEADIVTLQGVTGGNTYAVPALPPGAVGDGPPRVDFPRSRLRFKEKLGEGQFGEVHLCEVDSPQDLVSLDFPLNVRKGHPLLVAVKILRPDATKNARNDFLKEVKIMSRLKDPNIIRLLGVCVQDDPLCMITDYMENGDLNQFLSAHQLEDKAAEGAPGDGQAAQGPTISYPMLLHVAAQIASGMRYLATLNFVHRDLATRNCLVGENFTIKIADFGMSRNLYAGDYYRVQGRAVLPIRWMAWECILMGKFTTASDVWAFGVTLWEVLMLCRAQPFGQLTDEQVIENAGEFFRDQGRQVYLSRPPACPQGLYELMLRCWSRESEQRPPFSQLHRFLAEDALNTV
T8 sequence (P78356 whole entry): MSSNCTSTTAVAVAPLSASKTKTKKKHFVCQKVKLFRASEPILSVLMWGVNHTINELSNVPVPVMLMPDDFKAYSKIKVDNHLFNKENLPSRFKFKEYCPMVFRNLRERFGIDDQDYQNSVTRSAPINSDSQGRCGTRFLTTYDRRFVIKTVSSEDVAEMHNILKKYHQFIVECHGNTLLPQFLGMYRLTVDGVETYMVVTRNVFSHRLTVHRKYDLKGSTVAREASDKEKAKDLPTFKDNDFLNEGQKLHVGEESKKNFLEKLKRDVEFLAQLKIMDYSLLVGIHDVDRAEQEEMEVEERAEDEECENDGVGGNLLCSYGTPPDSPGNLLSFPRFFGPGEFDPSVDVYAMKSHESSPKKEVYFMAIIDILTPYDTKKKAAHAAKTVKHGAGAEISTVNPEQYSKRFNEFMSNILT
T2 sequence (O14976 whole entry): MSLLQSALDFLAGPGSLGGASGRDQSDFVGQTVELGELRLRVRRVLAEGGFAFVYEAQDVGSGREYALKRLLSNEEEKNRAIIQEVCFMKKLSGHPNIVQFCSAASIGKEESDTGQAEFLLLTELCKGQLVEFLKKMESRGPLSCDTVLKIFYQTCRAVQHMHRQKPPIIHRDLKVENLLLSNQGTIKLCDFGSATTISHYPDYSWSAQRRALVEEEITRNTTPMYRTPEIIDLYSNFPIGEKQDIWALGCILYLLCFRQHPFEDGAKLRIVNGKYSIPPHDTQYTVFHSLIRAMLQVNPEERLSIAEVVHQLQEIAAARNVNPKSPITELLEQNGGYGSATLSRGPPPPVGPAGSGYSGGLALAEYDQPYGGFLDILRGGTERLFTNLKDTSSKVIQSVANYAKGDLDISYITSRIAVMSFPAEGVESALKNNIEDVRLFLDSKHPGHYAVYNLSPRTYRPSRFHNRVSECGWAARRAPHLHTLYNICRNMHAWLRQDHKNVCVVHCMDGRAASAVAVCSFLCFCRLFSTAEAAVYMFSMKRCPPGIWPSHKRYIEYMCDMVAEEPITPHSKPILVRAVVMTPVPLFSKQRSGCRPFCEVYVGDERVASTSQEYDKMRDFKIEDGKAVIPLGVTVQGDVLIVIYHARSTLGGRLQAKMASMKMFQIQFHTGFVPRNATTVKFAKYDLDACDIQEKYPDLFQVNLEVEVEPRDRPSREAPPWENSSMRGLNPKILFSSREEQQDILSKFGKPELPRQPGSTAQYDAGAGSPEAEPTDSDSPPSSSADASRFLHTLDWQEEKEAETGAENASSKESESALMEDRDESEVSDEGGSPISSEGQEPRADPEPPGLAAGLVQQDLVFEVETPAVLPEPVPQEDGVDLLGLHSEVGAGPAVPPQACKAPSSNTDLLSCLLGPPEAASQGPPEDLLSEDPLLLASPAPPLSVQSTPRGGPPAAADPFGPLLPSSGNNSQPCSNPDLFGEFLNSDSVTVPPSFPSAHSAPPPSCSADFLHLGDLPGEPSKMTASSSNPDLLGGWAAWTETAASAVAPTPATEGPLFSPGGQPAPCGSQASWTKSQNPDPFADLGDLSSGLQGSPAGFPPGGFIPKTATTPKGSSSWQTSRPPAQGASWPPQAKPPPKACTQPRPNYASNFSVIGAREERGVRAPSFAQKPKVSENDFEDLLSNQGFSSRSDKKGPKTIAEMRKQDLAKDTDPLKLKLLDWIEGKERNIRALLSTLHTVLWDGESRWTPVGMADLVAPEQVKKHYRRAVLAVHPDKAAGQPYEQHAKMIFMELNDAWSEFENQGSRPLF

As to `CS(=O)(=O)Nc1ccccc1Nc1nc(Nc2cccc(OCCN)c2)ncc1F` [CZC25342, N-(2-(2-(3-(2-aminoethoxy)phenylamino)-5-fluoropyrimidin-4-ylamino)phenyl)methanesulfonamide], the “Competition % AurA” value in test [1] was determined as 93.6%. Further, the “Competition % GAK” value in [2] was 95.9%. In test [3], the “Competition % RIPK2” value came out at 94.4%. In test [4], the “Competition % MAP3K6” value was 91.6%. Moreover, in [5], the “Competition % FER” value is given as 96.7%. In test [6], the “Competition % PKCa” value amounted to 96.4%. In test [7], the “Competition % KDR” value worked out at 92.5%. The “Competition % PIP5K2B” value in test [8] came to 97.2%. In [9], the “Competition % RON” value came out at 96%. For the same molecule, the “Competition % DDR1” value in test [10] was 94.1%. The “Competition % IRAK3” value in test [11] was 86.2%.
